# Results reported in paper PMC9114115, “Property space mapping of Pseudomonas aeruginosa permeability to small molecules” (Scientific Reports, 2022).
# “And” between values parts separate entries of the source, which are not always exact repeats. Equal values may be shown once. Where a name gives a salt, the structure may show the parent alone.
# Columns and labels:
# P. aeruginosa PΔ3 cells = settings: 10-80 µM; for Concentration slopes of accumulation, PΔ3_1 min: 1 min incubation; for Concentration slopes of accumulation, PΔ3_40 min: 40 min incubation;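 on all read-outs here: slope of accumulation versus external concentration fitted as a line through zero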
# Method: (§1) PAO1-Pore and PΔ3-Pore were grown at 37 °C overnight with shaking at 225 rpm in 50 mM MOPS-M9 (pH 7.2) Minimal Medium supplemented with 1% glycerol[42],[43].
# (§2) The next day, cells were sub-cultured (1.5:100) in fresh MOPS-M9 medium and grown for 16 h. The cultures were then split into two flasks and one of them was induced with 0.1 mM IPTG. Cells incubated for additional 4 h until OD600 reached ~ 1.0 and harvested by centrifugation at 3,275xg for 20 min in RT, washed and concentrated 10X in the spent medium. Assays were performed in 96-well plates in a final volume of […]. Cells were incubated with 10, 20, 40, 80 µM of compounds and after 1- and 40-min incubation at RT, 100 µL cell aliquots were collected by vacuum filtration onto 1.0 µm Glass Fiber Type B filters. For no-cell controls, compounds were diluted to 10, 20, 40, 80 µM final concentration in the same medium, incubated for 1 min and 40 min and filtered onto the same plates. The cell loaded and cell-free filters were dried, removed from plates and placed into 100% methanol at -80 °C for at least 10 min. Filter-bound material was extracted by water bath sonication for 1 min. Cell and filter debris were separated by ultracentrifugation at 45,000 rpm (TLA55 rotor, Beckman) for 8 min at 16 °C and the pellet re-extracted with 80% methanol in water by sonication for 15 min followed by ultracentrifugation at the same conditions. Supernatants from two extractions were combined. For the compound quantification, 5 µL of solution was analyzed in triplicate.
# (§3) Calibration curves for MS analyses of compounds were generated in the same experiment by mixing compound at increasing concentrations with the sonicated PAO1 cell extracts. […] Azithromycin was used as a positive control in all experiments.
# (§4) Samples were processed in positive ion mode. An Eclipse plus C18 Rapid Resolution HD column (1.8 μm, 2.1 × 50 mm, Agilent, USA) was used for separation. The flow rate was 0.6 mL/min using the following gradient: 0 to 1 min (0- 20% ACN), 1 to 4 min (20- 80% ACN), 4 to 5.1 min (80–100% ACN), 5.1 to 6.30 (100% ACN). Solvents contained 0.1% formic acid to promote positive ion formation in the electrospray. […] Data were analyzed using Agilent Masshunter workstation quantitative analysis v. B.10 software.
# P. aeruginosa PAO1 cells = test: LC–MS quantification of intracellular accumulation, PAO1; settings: 10-80 µM; for Concentration slopes of accumulation, PAO1_1 min: 1 min incubation; for Concentration slopes of accumulation, PAO1_40 min: 40 min incubation;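 on all read-outs here: slope of accumulation versus external concentration fitted as a line through zero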
# Method: as §1, §2, §3, §4
# P. aeruginosa PAO1 = test: MIC by two-fold dilution, wild type PAO1; type: cell-based, Pseudomonas aeruginosa; settings: Pseudomonas aeruginosa; PAO1, MOPS-M9 medium; read-out: MICs
# Method: (§5) In all experiments, P. aeruginosa PAO1-Pore (PAO1 attTn7::PLAC-fhuA) and PΔ3-Pore (ΔmexAB ΔmexCD ΔmexXY attTn7::PLAC-fhuA) strains were used[29]. Strains were routinely grown in Luria–Bertani (LB) or MOPS-M9 medium at 37 °C with aeration. MICs shown in Tables 1 and 2 were determined by a two-fold dilution method in LB broth and MOPS-M9 medium, respectively, following the previously described protocol.
# [1] = test system: P. aeruginosa PΔ3-Pore cells; test: LC–MS quantification of intracellular accumulation, PΔ3-Pore; settings: 10-80 µM; for Concentration slopes of accumulation, PΔ3-Pore_1 min: 1 min incubation; for Concentration slopes of accumulation, PΔ3-Pore_40min: 40 min incubation;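 on all read-outs here: slope of accumulation versus external concentration fitted as a line through zero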
# Method: as §1, §2, §3, §4
# P. aeruginosa PAO1-Pore = test: MIC by two-fold dilution, hyperporinated PAO1-Pore; type: cell-based, Pseudomonas aeruginosa
# Method: as §5
# P. aeruginosa PΔ3-Pore = test: MIC by two-fold dilution, barrierless PΔ3-Pore; type: cell-based, Pseudomonas aeruginosa
# Method: as §5
# [2] = test system: P. aeruginosa PAO1-Pore cells; test: LC–MS quantification of intracellular accumulation, PAO1-Pore; settings: 10-80 µM; for Concentration slopes of accumulation, PAO1-Pore_1 min: 1 min incubation; for Concentration slopes of accumulation, PAO1-Pore_40 min: 40 min incubation;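 on all read-outs here: slope of accumulation versus external concentration fitted as a line through zero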
# Method: as §1, §2, §3, §4
SMILES,"Concentration slopes of accumulation, PΔ3_1 min (P. aeruginosa PΔ3 cells)","Concentration slopes of accumulation, PΔ3_40 min (P. aeruginosa PΔ3 cells)","Concentration slopes of accumulation, PAO1_1 min (P. aeruginosa PAO1 cells)","Concentration slopes of accumulation, PAO1_40 min (P. aeruginosa PAO1 cells)",MIC (P. aeruginosa PAO1),"Concentration slopes of accumulation, PΔ3-Pore_1 min [1]","Concentration slopes of accumulation, PΔ3-Pore_40min [1]","MICs (P. aeruginosa PAO1-Pore; PAO1-Pore, LB broth, Table S2)","MIC (P. aeruginosa PAO1-Pore; Pseudomonas aeruginosa, PAO1, read-out: MICs)","MIC (P. aeruginosa PΔ3-Pore; Pseudomonas aeruginosa, read-out: MICs, P∆3-Pore, MOPS-M9 medium) [µg/mL]","MICs (P. aeruginosa PΔ3-Pore; P∆3-Pore, LB broth, Table S2)","Concentration slopes of accumulation, PAO1-Pore_1 min [2]","Concentration slopes of accumulation, PAO1-Pore_40 min [2]"
"CCn1cc(C(=O)O)c(=O)c2cc(F)c(N3CCN(C)CC3)cc21 [OU-0000619, PEFLOXACINE MESYLATE]",21.54,34.80,14.50,14.54,2 µM and 0.9 µg/mL,32.20,39.09,0.25,0.25 µM and 0.11 µg/mL,0.03,0.0039,25.74,33.41
"COc1ccc(CCN(C)CCCC(C#N)(c2ccc(OC)c(OC)c2)C(C)C)cc1OC (stereo not shown) [OU-0000734, Verapamil HCl]",12.95,12.00,12.96,13.17,–,17.77,18.38,–,–,–,–,16.77,15.63
"O=C1CC2(CCCC2)CC(=O)N1CCCCN1CCN(c2ncccn2)CC1 [OU-0000735, Buspirone HCl]",6.98,6.60,6.08,7.21,–,9.57,9.56,–,–,–,–,7.76,7.56
"O=C(c1ccc(OCCN2CCCCC2)cc1)c1c(-c2ccc(O)cc2)sc2cc(O)ccc12 [OU-0000741, Raloxifene HCl]",69.39,35.59,45.85,26.99,–,83.30,77.54,–,–,–,–,56.66,52.80
"COCCCC/C(=N\OCCN)c1ccc(C(F)(F)F)cc1 [OU-0000742, Fluvoxamine]",4.15,4.97,3.55,4.45,–,6.28,6.18,–,–,–,–,6.04,6.15
"CC(CCc1ccccc1)NCC(O)c1ccc(O)c(C(N)=O)c1 (stereo not shown) [OU-0000748, Labetalol HCl]",17.87,22.85,15.94,14.89,–,23.35,22.27,–,–,–,–,21.98,21.99
"CC(Cc1ccc(O)cc1)NCC(O)c1cc(O)cc(O)c1 (stereo not shown) [OU-0000755, Fenoterol HBr]",2.24,1.99,1.15,1.72,–,2.02,2.24,–,–,–,–,1.22,2.13
"CCOC(=O)NC(=S)Nc1ccccc1NC(=S)NC(=O)OCC [OU-0000837, Thiophanate]",3.05,1.80,3.24,3.72,–,14.84,13.42,–,–,–,–,3.05,1.80
"CNC(=C[N+](=O)[O-])NCCSCc1ccc(CN(C)C)o1 [OU-0000840, Ranitidine HCl]",2.62,3.53,3.41,2.83,–,5.13,1.37,–,–,–,–,4.44,5.25
"NC(N)=Nc1nc(CSCCC(N)=NS(N)(=O)=O)cs1 [OU-0000841, Famotidine]",4.40,4.38,4.64,5.28,–,6.27,4.45,–,–,–,–,3.94,2.86
"CC[C@H]1CN2CCc3cc(OC)c(OC)cc3[C@@H]2C[C@@H]1C[C@H]1NCCc2cc(OC)c(OC)cc21.Cl.Cl [OU-0032504, Emetine DIHCl]",1.07,0.76,0.61,0.65,–,1.71,1.61,–,–,–,–,1.29,1.17
"CCN1CCCC1CNC(=O)c1cc(S(N)(=O)=O)ccc1OC.Cl (stereo not shown) [OU-0032505, Sulpiride HCl]",6.18,6.27,–,–,–,7.14,7.60,–,–,–,–,7.04,7.90
"COc1ccc2cc1Oc1ccc(cc1)C[C@H]1c3cc(c(OC)cc3CCN1C)Oc1c(OC)c(OC)cc3c1[C@H](C2)N(C)CC3 [OU-0032506, Tetrandrine]",7.92,5.95,5.68,5.34,–,11.59,8.93,–,–,–,–,10.07,7.33
"CC(C)NCC(O)c1ccc(NS(C)(=O)=O)cc1 (stereo not shown) [OU-0032507, Sotalol HCl]",3.77,2.90,4.31,4.58,–,15.87,9.07,–,–,–,–,8.24,3.55
O=C1NC[C@@H](CCC2CCCCC2)N[C@H]1Cc1cc(F)cc(F)c1 [OU-0032508],14.00,12.40,–,–,–,20.49,21.97,–,–,–,–,20.38,23.85
CCCC[C@H]1CNC(=O)[C@H](Cc2cc(F)cc(F)c2)N1 [OU-0032509],14.12,18.21,–,–,–,27.36,24.02,–,–,–,–,23.40,20.61
